Source: patent US20020082270A1, “Aminoquinazolines which inhibit signal transduction mediated by tyrosine kinases” (priority 2000, published 2002)

Molecular target: T1, human EGF-R (Homo sapiens, UniProt P00533)
T1 construct: expressed in transfected cells; host or cells: F/L-HERc cells: murine IL-3-dependent FDC-P1 cells transduced with retroviral vector LXSN carrying human EGF-R cDNA (packaging line GP+E86)
Experiment: Inhibition of EGF-dependent proliferation of F/L-HERc cells
Type: cell-based
Details: F/L-HERc cells (murine IL-3-dependent line expressing human EGF-R), stimulated with EGF 20 ng/ml, 48 hours, Cell Titer 96 AQueous assay
Excerpt: A cell line of murine origin dependent on interleukin-3-(IL-3) which was genetically modified to express functional human EGF-R was used here. The proliferation of these cells known as F/L-HERc can therefore be stimulated either by murine IL-3 or by EGF (cf. von Rüden, T. et al. in EMBO J. 7, 2749-2756 (1988) and Pierce, J. H. et al. in Science 239, 628-631 (1988)).
The starting material used for the F/L-HERc cells was the cell line FDC-P1, the production of which has been described by Dexter, T. M. et al. in J. Exp. Med. 152, 1036-1047 (1980). Alternatively, however, other growth-factor-dependent cells may also be used (cf. for example Pierce, J. H. et al. in Science 239, 628-631 (1988), Shibuya, H. et al. in Cell 70, 57-67 (1992) and Alexander, W. S. et al. in EMBO J. 10, 3683-3691 (1991)). […]
In order to determine the inhibitory activity of the compounds according to the invention the relative cell number was measured in O.D. units using the Cell Titer 96™ AQueous Non-Radioactive Cell Proliferation Assay (Promega). […]

T1 sequence (P00533 25-1210): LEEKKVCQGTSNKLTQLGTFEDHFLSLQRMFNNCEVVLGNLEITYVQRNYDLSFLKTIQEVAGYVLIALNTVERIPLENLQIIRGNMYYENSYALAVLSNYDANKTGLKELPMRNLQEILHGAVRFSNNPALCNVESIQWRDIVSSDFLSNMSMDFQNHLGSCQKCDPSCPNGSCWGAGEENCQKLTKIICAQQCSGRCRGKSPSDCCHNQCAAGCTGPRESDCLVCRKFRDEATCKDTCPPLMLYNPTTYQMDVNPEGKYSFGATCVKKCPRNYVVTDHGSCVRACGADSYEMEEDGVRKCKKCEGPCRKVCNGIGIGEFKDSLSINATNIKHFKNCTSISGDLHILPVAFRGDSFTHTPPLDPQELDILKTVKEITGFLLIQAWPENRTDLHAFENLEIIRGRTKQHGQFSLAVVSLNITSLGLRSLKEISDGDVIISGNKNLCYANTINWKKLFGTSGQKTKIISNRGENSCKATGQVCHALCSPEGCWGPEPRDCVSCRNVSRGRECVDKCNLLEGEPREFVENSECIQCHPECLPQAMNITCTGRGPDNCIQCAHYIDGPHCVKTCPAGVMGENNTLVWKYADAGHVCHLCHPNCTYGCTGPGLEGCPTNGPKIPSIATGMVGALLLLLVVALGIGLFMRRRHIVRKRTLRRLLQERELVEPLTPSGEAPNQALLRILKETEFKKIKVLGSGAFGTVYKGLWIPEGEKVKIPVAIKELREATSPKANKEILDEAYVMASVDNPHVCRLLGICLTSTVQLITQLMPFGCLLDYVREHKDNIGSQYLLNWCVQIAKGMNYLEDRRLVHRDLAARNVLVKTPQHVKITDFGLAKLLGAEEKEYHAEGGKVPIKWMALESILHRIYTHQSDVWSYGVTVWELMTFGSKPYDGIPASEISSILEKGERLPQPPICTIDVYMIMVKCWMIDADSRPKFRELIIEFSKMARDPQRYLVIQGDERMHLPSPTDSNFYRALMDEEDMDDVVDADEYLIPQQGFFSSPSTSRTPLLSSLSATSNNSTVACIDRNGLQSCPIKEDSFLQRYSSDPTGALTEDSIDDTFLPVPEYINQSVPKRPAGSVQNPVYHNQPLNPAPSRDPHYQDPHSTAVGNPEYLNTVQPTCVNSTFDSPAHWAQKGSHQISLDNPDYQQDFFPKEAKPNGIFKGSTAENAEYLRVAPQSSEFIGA

Work on `C=CC(=O)Nc1cc2c(N[C@H](C)c3ccccc3)ncnc2cc1OCCN1CCN(C2COC(=O)C2)CC1` (stereo partly drawn) [1 (2), 4-[(R)-(1-phenylethyl)amino]-7-{2-[4-(2-oxo-tetrahydrofuran-4-yl)-piperazin-1-yl]-ethoxy}-6-[(vinylcarbonyl)amino]-quinazoline] yielded an IC50 of 12 nM.
